Measurements taken from patent publication US20030124084A1, “Use of dehydroepiandrosterone and/or precursors or derivatives thereof to improve papery aspect of the skin” (priority 2000, published 2003).

Experiments:
Format in all cases: in vivo, human
[1] = system: skin of the face; experiment: Clinical scores of texture and flaccidness of the skin of the face
Description: (§1) This test was performed simultaneously with the one described in example 2, by applying the same products, onto the same groups of individuals, and under the same conditions, except that the products were applied to the skin of the face.
The texture of the skin and the flaccidness were assessed under blind conditions by the same clinician and are represented by clinical scores ranging from 0 (unpronounced or relatively unpronounced parameter) to 9 (very pronounced parameter).
(§2) The statistical analysis was performed by Wilcoxon tests.

[2] = system: weathered appearance of the skin; experiment: Clinical score of the weathered appearance of the skin, back of the hand, treated hand vs control hand
Description: A gelled oil-in-water emulsion containing 1% by weight of DHEA as sole active agent was tested in comparison with a vehicle consisting of an identical emulsion but not containing DHEA.
The products were tested on a group of forty women aged from 55 to 70. Half of the individuals applied the vehicle and the other half applied the DHEA-based emulsion, the choice of the individuals being made according to a computer-generated randomization. The emulsion was applied in the morning and in the evening for four months to the back of only one hand, the other hand serving as a control. The amounts applied were controlled by weighing the tubes at the start and end of the test.
The weathered appearance is assessed clinically under blind conditions on the back of each hand, at the start of the test and after four months, by the same clinician. The weathered appearance is represented by a clinical score ranging from 0 (weathered appearance absent or relatively unpronounced) to 9 (very pronounced weathered appearance).
The statistical analysis is performed by Wilcoxon tests.

[3] = system: skin of the face; experiment: Elasticity of the skin by Dermal Torque Meter
Description: as §1
The elasticity of the skin was assessed, at the start of the test and after four months, using the apparatus available under the tradename Dermal Torque Meter® from DTM® Dia-Stron Limited, Andover, Hampshire, United Kingdom. This apparatus makes it possible to study the response of the skin to a deformation applied in the direction parallel to its surface, as described in Escoffier C et al., Age-Related Mechanical Properties of Human Skin: an in Vivo Study, J. Invest. Dermatol., 1989, 93:353-357.
as §2

[4] = after four months, 1% DHEA emulsion topical on face, score 0 to 9
[5] = four months vs placebo, Wilcoxon test
[6] = start of test, face, score 0 to 9

Compound: C[C@]12CC[C@H](O)CC1=CC[C@@H]1[C@@H]2CC[C@]2(C)C(=O)CC[C@@H]12 [DHEA, dehydroepiandrosterone]
- Flaccidness clinical score, T4 [1, 4]: 4.15
- Texture clinical score, T4 [1, 4]: 3.8
- effect of topical application on flaccidness of the skin [1, 5]: does not significantly modify
- effect of topical application on texture of the skin [1, 5]: does not significantly modify
- Flaccidness clinical score, T0 [1, 6]: 4.45
- Texture clinical score, T0 [1, 6]: 4
- score for the weathered appearance on the treated hand vs control hand ([2]; after four months, 1% DHEA emulsion topical morning and evening on back of one hand, score 0 to 9, significant at p=0.05): lower
- difference in scores of the weathered appearance between the two hands ([2]; initial time (To), clinical score 0 to 9, women aged 55 to 70): virtually nonexistent
- Elasticity, T4 ([3]; after four months, 1% DHEA emulsion topical on face, Dermal Torque Meter): 0.66
- effect of topical application on elasticity of the skin [3, 5]: does not significantly modify
- Elasticity, T0 ([3]; start of test, face, Dermal Torque Meter): 0.77
